Patent US4638070A, “Heterocyclic amino-alcohol derivatives” (Continental Pharma, priority 1980, dated 1987)

Columns and labels:
[1] = tested on: guinea-pig ileum (acetylcholine contractions); experiment: Antispasmodic activity in vitro, contractions caused by acetylcholine; details: added 15 minutes before spasm-producing agent
Procedure: (§1) (4) The antispasmodic activity was measured in vitro, on guinea-pig ileum, the contractions of which were caused by histammne (Hist.), acetylcholine (Achol) or barium chloride (BaCl2). The tested products were added to perfusion bath 15 minutes before the spasm-producing agents.
(§2) The dose is given in micograms (μg) per ml of bath causing complete spasm inhibition.

[2] = tested on: unanaesthetized, hypertension-suffering rat; experiment: Antihypertensive activity (systolic arterial pressure), oral; assay type: in vivo; details: 60 mg/kg, hypertensive rat, 3 hours
Procedure: (2) The antihypertensive activity was measured on unanaesthetized, hypertension-suffering rat. The tested substances were orally given at a rate of 60 mg/kg. The systolic arterial pressure was measured every 30 minutes for 2 hours before and for 3 hours after the tested product was given. Results are expressed as follows: […]
O: no reduction of arterial pressure.
+: reduction lower than 10 mm Hg.
++: reduction of 10 to 20 mm Hg.
+++: reduction higher than 20 mm Hg.

[3] = tested on: guinea-pig ileum (histamine contractions); experiment: Antispasmodic activity in vitro, contractions caused by histamine; details: added 15 minutes before spasm-producing agent
Procedure: as §1, §2

femoral artery = experiment: Vasodilator activity, femoral artery (technique of perfused paw); assay type: in vivo; parameters: key: O: no action; +: slight activity; ++: effect equal to half the effect of papaverine; +++: effect equal to that of papaverine; ++++: effect higher than that of papaverine; details: intra-arterial, 30 mg/kg, anaesthetized dog, vs papaverine at same dose
Procedure: (3) The vasodilator activity was measured at the level of femoral artery on anaesthetized dog (technique of perfused paw). The tested substances were given intra-arterially at the rate of 30 mg/kg. Results are expressed with respect to papaverine tested at the same dose.
++: effect equal to half the effect of papaverine.
+++: effect equal to that of papaverine.
++++: effect higher than that of papaverine.

[4] = Acute toxicity, oral, LD50 (Litchfield and Wilcoxon); details: mouse, in vivo, fasted male mice, confidence limits p=95% in brackets
Procedure: (1) The acute toxicity was determined on fasted male mice. The tested substances were orally administered and LD50 values (lethal dose for 50% of animals) were calculated according to the method of Litchfield and Wilcoxon (J. Pharmacol. exp. Ther. 96, 94-113, 1949). These LD50 values are given in mg/kg and also, when possible, with their confidence limits for p=95%.

[5] = tested on: guinea-pig ileum (barium chloride contractions); experiment: Antispasmodic activity in vitro, contractions caused by barium chloride; details: added 15 minutes before spasm-producing agent
Procedure: as §1, §2

Q: For `CCCCCCCCNC(C)C(O)c1ccc2c(c1)CCC2` (centres unmarked) [No 164], which “ANTISPASMODIC ACTIVITY ACHOL (dose causing complete spasm inhibition)” value [1] is on record?
A: Its value is 0.8 μg per ml.

Q: What about the “ANTIHYPERTENSIVE ACTIVITY” value [2] of the same compound?
A: The value was “++ (reduction of 10 to 20 mm Hg)”.

Q: What about the “ANTISPASMODIC ACTIVITY HIST. (dose causing complete spasm inhibition)” value [3] of the same compound?
A: The value was 0.8 μg per ml.

Q: And the “VASODILATOR ACTIVITY” value (femoral artery)?
A: The value was “+++”.

Q: And the LD50 [4]?
A: Its LD50 is 1750 mg/kg.

Q: For `CC(NCCCC(=O)c1ccc(F)cc1)C(O)c1ccc2c(c1)CCS2` (centres unmarked) [No 111], which “ANTISPASMODIC ACTIVITY ACHOL (dose causing complete spasm inhibition)” value [1] is on record?
A: The value was 0.8 μg per ml.

Q: What about the “ANTIHYPERTENSIVE ACTIVITY” value [2] of the same compound?
A: Its value is “++ (reduction of 10 to 20 mm Hg)”.

Q: What about the “ANTISPASMODIC ACTIVITY HIST. (dose causing complete spasm inhibition)” value [3] of the same compound?
A: Its value is 0.3 μg per ml.

Q: And the “VASODILATOR ACTIVITY” value (femoral artery)?
A: Its value is “+++”.

Q: What about the LD50 [4] of the same compound?
A: Its LD50 is ~700 mg/kg.

Q: Which “ANTISPASMODIC ACTIVITY ACHOL (dose causing complete spasm inhibition)” value [1] does the source give for `CC(NC1CCCCCCC1)C(O)c1ccc2c(c1)CCCS2` (centres unmarked) [No 27] here?
A: Its value is 1.7 μg per ml.

Q: What about the “ANTISPASMODIC ACTIVITY BaCl2 (dose causing complete spasm inhibition)” value [5] of the same compound?
A: Its value is 1.7 μg per ml.

Q: What about the “ANTISPASMODIC ACTIVITY HIST. (dose causing complete spasm inhibition)” value [3] of the same compound?
A: The value was 1.7 μg per ml.

Q: And the “VASODILATOR ACTIVITY” value (femoral artery)?
A: The value was “++”.

Q: What does the source list for `CC1Cc2cc(C(O)C(C)NCCOc3ccc(Cl)cc3)ccc2S1` (centres unmarked) [No 58]?
A: ANTISPASMODIC ACTIVITY ACHOL (dose causing complete spasm inhibition) [1]: 1.7 μg per ml; ANTIHYPERTENSIVE ACTIVITY [2]: +++ (reduction higher than 20 mm Hg); ANTISPASMODIC ACTIVITY HIST. (dose causing complete spasm inhibition) [3]: 1.7 μg per ml; VASODILATOR ACTIVITY (femoral artery): +++; LD50 [4]: > 4000 mg/kg

Q: For `CCC(=O)OC(c1ccc2c(c1)CCS2)C(C)NCCCCc1ccccc1` (centres unmarked) [No 118], which “ANTISPASMODIC ACTIVITY ACHOL (dose causing complete spasm inhibition)” value [1] is on record?
A: Its value is 1.7 μg per ml.

Q: And the “ANTIHYPERTENSIVE ACTIVITY” value [2]?
A: The value was “+++ (reduction higher than 20 mm Hg)”.

Q: And the “ANTISPASMODIC ACTIVITY HIST. (dose causing complete spasm inhibition)” value [3]?
A: Its value is 0.8 μg per ml.

Q: And the “VASODILATOR ACTIVITY” value (femoral artery)?
A: Its value is “++”.

Q: What about the LD50 [4] of the same compound?
A: The LD50 was 2020 mg/kg.

Q: With `CC(NCCCc1ccc(Cl)cc1)C(O)c1ccc2c(c1)CCCS2` (centres unmarked) [No 78] as the compound, how does the “ANTISPASMODIC ACTIVITY ACHOL (dose causing complete spasm inhibition)” value [1] read?
A: The value was 1.7 μg per ml.

Q: What about the “ANTIHYPERTENSIVE ACTIVITY” value [2] of the same compound?
A: The value was “+++ (reduction higher than 20 mm Hg)”.

Q: And the “ANTISPASMODIC ACTIVITY HIST. (dose causing complete spasm inhibition)” value [3]?
A: Its value is 0.8 μg per ml.

Q: And the “VASODILATOR ACTIVITY” value (femoral artery)?
A: The value was “++++”.

Q: What about the LD50 [4] of the same compound?
A: Its LD50 is 725 mg/kg.

Q: With `CC1CSc2ccc(C(O)C(C)NCCCCc3ccccc3)cc2C1` (centres unmarked) [No 45] as the compound, how does the “ANTISPASMODIC ACTIVITY ACHOL (dose causing complete spasm inhibition)” value [1] read?
A: The value was 0.8 μg per ml.

Q: And the “ANTIHYPERTENSIVE ACTIVITY” value [2]?
A: Its value is “+ (reduction lower than 10 mm Hg)”.

Q: And the “ANTISPASMODIC ACTIVITY HIST. (dose causing complete spasm inhibition)” value [3]?
A: The value was 0.8 μg per ml.

Q: And the “VASODILATOR ACTIVITY” value (femoral artery)?
A: Its value is “+++”.

Q: And the LD50 [4]?
A: Its LD50 is > 4000 mg/kg.

Q: Which “ANTISPASMODIC ACTIVITY ACHOL (dose causing complete spasm inhibition)” value [1] does the source give for `CC(NCCCOc1ccccc1)C(O)c1ccc2c(c1)CCCS2` (centres unmarked) [No 75] here?
A: The value was 1.7 μg per ml.

Q: And the “ANTIHYPERTENSIVE ACTIVITY” value [2]?
A: Its value is “+++ (reduction higher than 20 mm Hg)”.

Q: What about the “ANTISPASMODIC ACTIVITY HIST. (dose causing complete spasm inhibition)” value [3] of the same compound?
A: The value was 0.8 μg per ml.

Q: And the “VASODILATOR ACTIVITY” value (femoral artery)?
A: The value was “+++”.

Q: What about the LD50 [4] of the same compound?
A: Its LD50 is > 4000 mg/kg.

Q: Which “ANTISPASMODIC ACTIVITY ACHOL (dose causing complete spasm inhibition)” value [1] does the source give for `CCC(NCCCCc1ccccc1)C(O)c1ccc2c(c1)CCS2` (centres unmarked) [No 115] here?
A: Its value is 1.7 μg per ml.

Q: And the “ANTIHYPERTENSIVE ACTIVITY” value [2]?
A: Its value is “+++ (reduction higher than 20 mm Hg)”.

Q: What about the “ANTISPASMODIC ACTIVITY HIST. (dose causing complete spasm inhibition)” value [3] of the same compound?
A: Its value is 0.8 μg per ml.

Q: What about the “VASODILATOR ACTIVITY” value (femoral artery) of the same compound?
A: Its value is “+++”.

Q: What about the LD50 [4] of the same compound?
A: The LD50 was ~2500 mg/kg.

Q: Which “ANTISPASMODIC ACTIVITY ACHOL (dose causing complete spasm inhibition)” value [1] does the source give for `CC(NCCCCc1ccc(Cl)cc1)C(O)c1ccc2c(c1)CCC2` (centres unmarked) [No 167] here?
A: The value was 0.8 μg per ml.

Q: And the “ANTIHYPERTENSIVE ACTIVITY” value [2]?
A: The value was “+++ (reduction higher than 20 mm Hg)”.

Q: What about the “ANTISPASMODIC ACTIVITY HIST. (dose causing complete spasm inhibition)” value [3] of the same compound?
A: The value was 0.8 μg per ml.

Q: And the “VASODILATOR ACTIVITY” value (femoral artery)?
A: Its value is “+++”.

Q: What about the LD50 [4] of the same compound?
A: The LD50 was ~270 mg/kg.

Q: With `CC1Cc2cc(C(O)C(C)NCCSc3ccccc3)ccc2S1` (centres unmarked) [No 106] as the compound, how does the “ANTISPASMODIC ACTIVITY ACHOL (dose causing complete spasm inhibition)” value [1] read?
A: The value was 1.7 μg per ml.

Q: What about the “ANTIHYPERTENSIVE ACTIVITY” value [2] of the same compound?
A: The value was “++ (reduction of 10 to 20 mm Hg)”.

Q: And the “ANTISPASMODIC ACTIVITY HIST. (dose causing complete spasm inhibition)” value [3]?
A: The value was 1.7 μg per ml.

Q: And the “VASODILATOR ACTIVITY” value (femoral artery)?
A: The value was “+++”.

Q: What about the LD50 [4] of the same compound?
A: Its LD50 is > 4000 mg/kg.

Q: For `CCCCSCCCNC(C)C(O)c1ccc2c(c1)CCCS2` (centres unmarked) [No 80], which “ANTISPASMODIC ACTIVITY ACHOL (dose causing complete spasm inhibition)” value [1] is on record?
A: The value was 1.7 μg per ml.

Q: And the “ANTIHYPERTENSIVE ACTIVITY” value [2]?
A: The value was “+++ (reduction higher than 20 mm Hg)”.

Q: What about the “ANTISPASMODIC ACTIVITY HIST. (dose causing complete spasm inhibition)” value [3] of the same compound?
A: Its value is 0.8 μg per ml.

Q: What about the “VASODILATOR ACTIVITY” value (femoral artery) of the same compound?
A: Its value is “++”.

Q: And the LD50 [4]?
A: The LD50 was 5000 mg/kg.

Q: What does the source list for `CC1Cc2cc(C(O)C(C)NCCOc3ccccc3)ccc2O1` (centres unmarked) [No 89]?
A: ANTISPASMODIC ACTIVITY ACHOL (dose causing complete spasm inhibition) [1]: 8.3 μg per ml; ANTIHYPERTENSIVE ACTIVITY [2]: +++ (reduction higher than 20 mm Hg); ANTISPASMODIC ACTIVITY HIST. (dose causing complete spasm inhibition) [3]: 8.3 μg per ml; VASODILATOR ACTIVITY (femoral artery): +++; LD50 [4]: 550 mg/kg

Q: With `CC(NCC(c1ccccc1)c1ccccc1)C(O)c1ccc2c(c1)CCCS2` (centres unmarked) [No 21] as the compound, how does the “ANTISPASMODIC ACTIVITY ACHOL (dose causing complete spasm inhibition)” value [1] read?
A: Its value is 0.33 μg per ml.

Q: And the “ANTISPASMODIC ACTIVITY BaCl2 (dose causing complete spasm inhibition)” value [5]?
A: Its value is 1.7 μg per ml.

Q: What about the “ANTISPASMODIC ACTIVITY HIST. (dose causing complete spasm inhibition)” value [3] of the same compound?
A: Its value is 0.33 μg per ml.

Q: What about the “VASODILATOR ACTIVITY” value (femoral artery) of the same compound?
A: Its value is “+++”.
